Results on 4 compounds are retold here after PMC4385830, “Group I Paks as therapeutic targets in NF2-deficient meningioma” (Oncotarget, 2015).

In one assay the test system is KT21 cells. As to the kind of experiment: Apoptosis, Annexin V positive cells by flow cytometry. Type of assay: cell-based. Conditions: 3 days, vs DMSO. As to the method: For detection of apoptosis, subconfluent cells were plated in 60-mm plate and treated with inhibitors for 3 days. Cells were collected, washed and resuspended in 1x binding buffer with Annexin V-EGFP and propidium iodide (BioVision, CA) and incubated at room temperature for 5 min in dark. Apoptosis was measured using FACS with collecting 10,000 events per sample.

Assay [1] relates to KT21-MG1-Luc5D intracranial xenografts. Description: Orthotopic meningioma model, bioluminescence imaging. The conditions noted are these: SCID mice; oral gavage 90 mg/kg/day; 2 weeks; BLI.
Excerpt: Eight-week-old SCID mice were anesthetized with ketamine and their heads were stabilized in a small animal stereotaxic instrument. A midline sagittal incision was made on the cranial skin. A burr hole was drilled in the skull with coordinated 1.5 mm anterior and 1.5 mm lateral to the right from the bregma and a 5-μl Hamilton syringe loaded with cells was slowly inserted through the burr hole and ~0.5 mm downward to the skull base. The incision was closed using surgical absorbable gut suture.
Mice transplanted with meningioma cells were imaged using Xenogen IVIS Spectrum (Caliper, MA). Mice were injected intraperitoneally with Rediject D-Luciferin Ultra at 150 mg/kg under anesthetized with isofluorane. Luciferase activity was measured and all bioluminescence imaging was conducted when perk signal was reached. Once tumors were established (~3 weeks post-transplantation), mice were divided into groups for shRNA studies or drug treatments.
For drugs treatment, mice were dosed with Pak inhibitors daily for 14–21 days and tumor growth was monitored every week by BLI. Mean luminescence for each treatment groups (n = 5) was calculated as described previously.
The next assay has as its system Ben-Men cells. As to the kind of experiment: Immunoblot of signaling pathways. The class given is cell-based. As to the method:
(§1) Protein concentration was determined, and equal amount of total proteins were separated by SDS-PAGE. […] GAPDH and β-actin were used as loading control.

A further assay deals with KT21 or Ben-Men cells. Description: Immunoblot of signaling pathways. The class given is cell-based. As for the experimental part: as §1
A further assay relates to Arachnoid cell AC07. As to the kind of experiment: Cell viability, MTT assay. The class given is cell-based. Conditions: NF2+/+, 72 hrs. As to the method: (§2) Cells were plated at 3 × 10^3 cells per well in 96-well plates overnight and treated with various concentrations of Pak inhibitors for 72 hours. Cell viability was measured by MTT assay and the half maximal inhibitory concentration (IC50) was calculated.

A further assay deals with Malignant MN525. Description: Cell viability, MTT assay. Conditions: NF2+/+, 72 hrs. Type of assay: cell-based. As for the experimental part: as §2
The subject of the next assay is Malignant KT21-MG1. As to the kind of experiment: Cell viability, MTT assay. The conditions noted are these: for IC50: NF2−/−, 72 hrs, MTT; for effect on growth of cells: KT21, 3 days, GSK690693 effect only at high doses. The class given is cell-based. As for the experimental part: as §2
The next assay concerns Benign Ben-Men-1. Description: Cell viability, MTT assay. The class given is cell-based. The conditions noted are these: for IC50: NF2−/−, 72 hrs, MTT; for effect on growth of cells: Ben-Men, 3 days, GSK690693 effect only at high doses. As to the method:
as §2

For another assay, the system named is Benign MN328. Description: Cell viability, MTT assay. The class given is cell-based. Conditions: NF2+/+, 72 hrs. As to the method: as §2

Regarding `CCn1c(=O)c(-c2ccc(-c3cncs3)cc2Cl)cc2cnc(Nc3ccc(N4CCN(C)CC4)cc3)nc21` [Frax597], the “number of apoptotic cells” value in the assay on KT21 cells is “substantial increase”. For the same compound, the “impaired KT21 tumor growth compared to vehicle cohort” value in [1] came to 50%. Moreover, the “basal level (expression) of β-catenin” value in the assay with Ben-Men cells is reported as “did not impact”. In addition, the “phosphorylation of β-catenin” value with Ben-Men cells is given as “diminished”. For the same compound, in the assay with KT21 or Ben-Men cells (inhibitors at IC50 concentration), the “phosphorylation of Pak and Mek1 (at Ser298)” value is listed as “dramatically inhibited”. Besides, the IC50 amounted to 1.18 µM with Arachnoid cell AC07; 1.59 µM with Malignant MN525; 2.93 µM in the assay on Malignant KT21-MG1; 0.393 µM with Benign Ben-Men-1; 2.81 µM with Benign MN328.

Turning to `CCn1c(-c2nonc2N)nc2c(C#CC(C)(C)O)ncc(OC[C@H]3CCCNC3)c21` [GSK690693], the IC50 in the assay with Arachnoid cell AC07 was > 20 µM; with Malignant MN525, > 20 µM; with Malignant KT21-MG1, 4.24 µM; in the assay with Benign Ben-Men-1, 3.27 µM; in the assay on Benign MN328, > 20 µM. Moreover, the “effect on growth of cells” value in the assay on Malignant KT21-MG1 and with Benign Ben-Men-1 was “impeded the growth” each time.

Consider `Oc1ccc2ccccc2c1SSc1c(O)ccc2ccccc12` [IPA3, reference compound], for which the “basal level (expression) of β-catenin” value in the assay on Ben-Men cells is “induction”. Moreover, the Pak activity result in the assay on KT21 or Ben-Men cells (immunoblot) is given as “paradoxical stimulation”.

Regarding `O=C(NOC[C@H](O)CO)c1ccc(F)c(F)c1Nc1ccc(I)cc1F` [PD325901], the half-inhibitory concentration (IC50) in the assay with Arachnoid cell AC07 is > 20 µM; with Malignant MN525, > 20 µM; with Malignant KT21-MG1 it was > 7 µM; with Benign Ben-Men-1 it was > 20 µM; with Benign MN328, > 20 µM. Further, the “effect on growth of cells” value in the assay with Malignant KT21-MG1 and with Benign Ben-Men-1 was “no effect” throughout.
